Laboratory results taken from patent publication US20100330029A1, “Cancer Treatments with Radiation and Immunocytokines” (Merck Patent GmbH, priority 2008, published 2010).

Legend:
Assay type in all cases: in vivo, mice
[1] = system: B16 melanoma; assay: tumor growth assay, B16 model; conditions: Experiment B16-1; 10 Gy d0 followed by i.v. EMD521873 days 3, 4, 5
Experimental: B16 cells, a murine melanoma cell line, were maintained in RPMI 1640, supplemented with 10% heat inactivated fetal bovine serum, L-glutamine, sodium pyruvate, non-essential amino acids, penicillin/streptomycin (Life Technologies, Inc.) at 37° C. and 7% CO2. B16 cells were implanted in female C57BL/6 mice.
For the tumor growth assay, cells growing exponentially in culture were injected as a single cell suspension in 100 μl of PBS intramuscularly into the upper legs of the mice. In experiments using a dual tumor model, cells were also implanted in the flanks of the mice. After tumors had become established, treatment was initiated (day 0). In Experiment LLC-7, tumors were implanted in the flank until established. Mice were treated on days 0 to 9, then, on day 12, tumors were excised using survival surgery. Thereafter, animal survival was monitored. […] Mice were treated on days 0 to 6 and day 17, and tumor size was measured twice weekly for the duration of the study.
Tumors were measured with calipers in three dimensions for the duration of the experiment. Tumor volumes were calculated using the equation: […]
In addition, there was a moderate, but significant increase in certain immune response markers in the tumor as measured by immune marker gene expression profiles with CD25, TNFA, TYROBP, ICOS and CD45 being modulated >4-fold compared to either therapy alone.

[2] = system: Lewis lung carcinoma (LLC); assay: tumor growth assay, Lewis lung carcinoma model; conditions: for Complete Response Rate: Sel 5 mg/kg d7, 8, 9, Ch/Rx = cisplatin 4 mg/kg d0 plus 3.6 Gy/d d0-4; for tumor growth / complete regressions: Experiments LLC-1, LLC-2, LLC-4
Experimental: LL/2 (LLC) cells, a murine Lewis lung carcinoma cell line, were maintained in DMEM, supplemented with 10% heat-inactivated fetal bovine serum, L-glutamine, penicillin/streptomycin (Life Technologies, Inc.) at 37° C. and 7% CO2. LLC cells were implanted in female C57BL/6 mice.
For the tumor growth assay, cells growing exponentially in culture were injected as a single cell suspension in 100 μl of PBS intramuscularly into the upper legs of the mice. In experiments using a dual tumor model, cells were also implanted in the flanks of the mice. […] In Experiment LLC-7, tumors were implanted in the flank until established. Mice were treated on days 0 to 9, then, on day 12, tumors were excised using survival surgery. Thereafter, animal survival was monitored. In Experiment LLC-14, tumors were implanted subcutaneously in the flank until established. Mice were treated on days 0 to 6 and day 17, and tumor size was measured twice weekly for the duration of the study.
Tumors were measured with calipers in three dimensions for the duration of the experiment. Tumor volumes were calculated using the equation:
Volume=4/3π(L/2×W/2×H/2) • where L=length, W=width and H=height of the tumor
For local irradiation, mice were anesthetized by intraperitoneal injection of a solution of 2% tribromoethanol/3% xylazine. The amount injected was 0.02 ml/gram of the recipient's weight. Mice were restrained so that only their tumor-bearing leg was exposed to radiation, while the reminder of the mouse was shielded. Tumors were irradiated with ^137Cs gamma radiation at a dose rate of 1 Gy/min using a Gammacell® 40 Exactor (Nordion, Ottawa, ON).
Data from the subcutaneous tumor growth assay are presented in graphic form depicting average and standard deviations (sd) of tumor volumes or weights during and after dosing. Animal weight changes were determined by subtracting the animal weight at each time point from the initial body weight, on day 0, then dividing by the initial body weight and multiplying by 100. Therefore a value of 0 indicates no weight change.
Student's 2-tailed t test or Mann-Whitney Rank Sum test, as appropriate, was performed on the individual tumor volumes or animal weights, to determine significant differences between treatment groups.

[3] = system: LLC tumors; assay: survival after surgical removal of treated LLC tumor; conditions: Experiment LLC-7; EMD521873 5 mg/kg d7, 8, 9 plus chemoradiation; tumor removed day 12 or 13
Experimental: For the tumor growth assay, cells growing exponentially in culture were injected as a single cell suspension in 100 μl of PBS intramuscularly into the upper legs of the mice. In experiments using a dual tumor model, cells were also implanted in the flanks of the mice. After tumors had become established, treatment was initiated (day 0). In Experiment LLC-7, tumors were implanted in the flank until established. Mice were treated on days 0 to 9, then, on day 12, tumors were excised using survival surgery. Thereafter, animal survival was monitored. In Experiment LLC-14, tumors were implanted subcutaneously in the flank until established. Mice were treated on days 0 to 6 and day 17, and tumor size was measured twice weekly for the duration of the study.
In another experiment the ability of local irradiation followed by immunocytokine administration to reduce tumor recurrence following surgery was tested (Experiment LLC-7). Mice with subcutaneous LLC tumors were treated with either chemoradiation (cisplatin 4 mg/kg, d0 plus 3.6 Gy/d, d0-4 of fractionated radiation given to the tumor) or EMD521873 (5 mg/kg, d7, 8, 9) plus chemoradiation. The remaining tumor was then surgically removed on day 12 or 13 and survival was monitored. Ten out of 12 mice treated with the combination achieved long term survival compared to 6 out of 10 treated with radiation alone.

[4] = system: T cell and T cell activation-associated genes in the tumor; assay: qPCR gene profiling of tumors, CT26/KSA model
Experimental: Gene profiling of tumors was analyzed using excised tumor tissues placed in RNAlater® RNA stabilizing reagent upon harvest. Total RNA was prepared with an RNeasy® kit (Qiagen) and cDNA was prepared with the Superscript® III kit for qPCR (Life Technologies, Inc.). qPCR reactions were performed on an ABI7500 instrument in a standardized fashion and relative changes in gene expression were analyzed using the ddCt method (efficiency factor 95%). Housekeeping genes used for comparison included ACTB, B2M and HPRT1.

[5] = system: immune effector cell populations in blood; assay: FACS analysis of immune effector cell populations in blood, CT26/KSA model
Experimental: Immune effector cell populations in blood were analyzed by FACS. Blood was collected from the retro-orbital sinus of each mouse. Red blood cells were eliminated using lysis buffer. After blocking with rat IgG (1:50), samples were incubated with a 7-color cocktail of antibodies against CD4, CD8, CD25, CD44, CD62L, CD11b, and DX5. Samples were run on a FacsARIA and analyzed for various cell subpopulations.

[6] = Experiment LLC-6, chemoradiation followed by EMD521873
[7] = LLC-3, EMD521873 with cisplatin plus 1.2 Gy/d
[8] = triple combination of chemoradiation plus EMD521873
[9] = radiation followed by EMD521873 (combination)

Q: Which anti-tumor activity [1] does the source give for “dI-NHS76γ2(h)(FN>AQ)-ala-IL2(D20T) [EMD521873]” here?
A: greater anti-tumor activity compared to either treatment alone

Q: And the “Complete Response Rate” value ([2]; Exp LLC-3)?
A: 0/6

Q: What about the “Complete Response Rate” value ([2]; Exp LLC-4) of the same substance?
A: 1/8

Q: What about the “Complete Response Rate” value ([2]; Exp LLC-5) of the same substance?
A: 0/6

Q: And the “growth control of the irradiated lesion (leg tumor)” value [2, 6]?
A: good growth control

Q: And the “growth control of the non-irradiated flank tumor” value [2, 6]?
A: did not surpass that of EMD521873 alone

Q: And the tumor growth ([2]; EMD521873 5 mg/kg d7, 8, 9 with radiation 3.6 Gy/d d0-4)?
A: reduced tumor growth compared to any of the single treatments and to the other double treatments

Q: What about the complete regressions ([2]; EMD521873 with radiation) of the same substance?
A: 3/6

Q: And the tumor growth ([2]; cisplatin 4 mg/kg d0 added to radiation/EMD521873)?
A: further growth control

Q: And the complete regressions ([2]; cisplatin added to radiation/EMD521873 (triple combination))?
A: 5/6

Q: And the complete responses ([2]; Experiments LLC-1, LLC-2, 3.6 Gy days 0-4 followed by EMD521873 5 mg/kg i.v. days 7, 8, 9)?
A: 3/6

Q: What about the complete responses ([2]; Experiments LLC-1, LLC-2, EMD521873 monotherapy 5 mg/kg i.v. days 7, 8, 9) of the same substance?
A: No complete responses

Q: And the tumor growth control ([2]; LLC-3, EMD521873 5 mg/kg d7, 8, 9 with cisplatin plus 0.4 Gy/d, vs EMD521873 alone or EMD521873 plus cisplatin)?
A: did not improve tumor growth control

Q: And the complete responses [2, 7]?
A: no complete responses

Q: What about the tumor growth control [2, 7] of the same substance?
A: improved growth control compared to either therapy alone

Q: And the complete responses ([2]; LLC-3, cisplatin plus 3.6 Gy/d in combination with EMD521873)?
A: 5/6

Q: And the T/C ([2]; LLC-3, day 19, cisplatin plus 3.6 Gy/d in combination with EMD521873)?
A: 0.02

Q: And the T/C ([2]; LLC-3, day 19, single-arm groups: cisplatin plus 3.6 Gy/d without EMD521873, or EMD521873 alone)?
A: 0.69

Q: And the complete responses ([2]; LLC-3, single-arm groups: cisplatin plus 3.6 Gy/d without EMD521873, or EMD521873 alone)?
A: 0/6

Q: What about the “animals with complete response” value ([2]; LLC-8, LLC-9, combination with chemoradiation) of the same substance?
A: 4/6

Q: What about the T/C ([2]; LLC-8, LLC-9, day 21, combination with chemoradiation (cisplatin 4 mg/kg d0 plus 3.6 Gy/d d0-4)) of the same substance?
A: 0.03

Q: And the “response rate (CRs)” value ([2]; LLC-10, 1 mg/kg EMD521873 d7, 8, 9 plus chemoradiation)?
A: 2/8

Q: And the “response rate (CRs)” value ([2]; LLC-10, 5 mg/kg EMD521873 d7, 8, 9 plus chemoradiation)?
A: 3/8

Q: And the “response rate (CRs)” value ([2]; LLC-10, 15 mg/kg EMD521873 d7, 8, 9 plus chemoradiation)?
A: 3/8

Q: What about the “tumor volume (FIG. 9)” value ([2]; LLC-10, 1, 5 and 15 mg/kg EMD521873 in combination with chemoradiation vs EMD521873 alone, chemoradiation alone, vehicle) of the same substance?
A: similarly reduced tumor volume

Q: What about the tumor growth control ([2]; LLC-11, EMD521873 5 mg/kg d0, 1, 2 followed by radiation for 1 or 2 weeks, vs EMD521873 or radiation alone) of the same substance?
A: an increase in tumor growth control

Q: And the “tumor regressions and complete responses” value ([2]; LLC-11, EMD521873 followed by radiation for 1 or 2 weeks)?
A: neither tumor regressions nor complete responses were achieved

Q: What about the tumor regressions ([2]; LLC-12, EMD521873 5 mg/kg days 7, 8, 9 after a single week of radiation (3.6 Gy/d; d0, 2, 4)) of the same substance?
A: a majority of tumor regressions

Q: And the complete responses ([2]; LLC-12, EMD521873 after a single week of radiation)?
A: no complete responses

Q: What about the “tumor regressions and tumor growth control” value ([2]; LLC-12, EMD521873 during the 2nd week of a 2 week or 3 week course of radiation, vs EMD521873 or radiation alone) of the same substance?
A: tumor regressions and improved tumor growth control

Q: And the complete responses ([2]; LLC-13, cisplatin plus radiation for 1 week followed by EMD521873)?
A: 4/10

Q: What about the complete responses ([2]; LLC-13, cisplatin plus radiation for three weeks prior to EMD521873) of the same substance?
A: 0/10

Q: And the tumor growth control ([2]; LLC-13, cisplatin plus radiation for two weeks or three weeks prior to EMD521873)?
A: neither gave enhancement of tumor growth control compared to chemoradiation alone

Q: And the complete responses ([2]; LLC-13, cisplatin plus radiation for two weeks prior to EMD521873)?
A: 2/10

Q: And the tumor growth control ([2]; LLC-13, cisplatin plus radiation in the first week followed by EMD521873)?
A: enhancement of tumor growth control compared to either therapy alone

Q: And the “tumor growth (FIG. 6)” value ([2]; LLC-14, chemoradiation (cisplatin, 3.6 Gy/d d0-4) combined with immunocytokine on d6 and d17, EMD521873 5 mg/kg i.v., NHS-muIL12 10 μg/animal s.c.)?
A: enhanced the efficacy of EMD521873

Q: And the “tumor growth (FIG. 7)” value ([2]; immunocytokine administered with chemoradiation, compared to no treatment, chemoradiation alone, immunocytokine alone)?
A: a decrease in tumor growth

Q: What about the “complete regressions (FIG. 8)” value ([2]; treatment alone) of the same substance?
A: no complete regressions occurred

Q: What about the “tumor growth (FIG. 8)” value ([2]; treatment alone) of the same substance?
A: no decrease in tumor growth was seen

Q: What about the “complete regressions (FIG. 8)” value [2, 8] of the same substance?
A: 9/9

Q: And the “tumor volume (FIG. 8)” value [2, 8]?
A: a decrease in tumor volume

Q: And the “long term survival after surgery” value [3]?
A: Ten out of 12

Q: And the “levels of FoxP3 gene expression in the tumor” value [4, 9]?
A: did not increase

Q: What about the “CD8, Granzyme B, and IFNγ gene expression increase in the tumor” value ([4]; radiation followed by EMD521873, compared to either EMD521873 or radiation alone) of the same substance?
A: 3.5-4.6 fold

Q: And the “CD4+CD25+ lymphocyte subpopulation in the blood” value [5, 9]?
A: increased

Q: What about the “increase in effector T cells in the blood” value ([5]; radiation followed by EMD521873, compared to either therapy alone) of the same substance?
A: 4 fold
